Results as given in PubChem BioAssay AID743264.
Activity calls are given as the source filed them.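 Rule for the calls: active = mean IC50 for blocking HCV helicase binding to DNA at 50 µM or lower; inactive = mean IC50 above 50 µM.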

Target: HCV NS3 helicase (NS3h) (UniProt A3EZJ3)
Assay: NS3h DNA-binding inhibition IC50 – biochemical, fluorescence polarization, ChemBridge library, dose response (AID 743264)
Conditions: NS3h binding Cy5-dT15 DNA

HCV NS3 helicase (NS3h), sequence (A3EZJ3 1-631): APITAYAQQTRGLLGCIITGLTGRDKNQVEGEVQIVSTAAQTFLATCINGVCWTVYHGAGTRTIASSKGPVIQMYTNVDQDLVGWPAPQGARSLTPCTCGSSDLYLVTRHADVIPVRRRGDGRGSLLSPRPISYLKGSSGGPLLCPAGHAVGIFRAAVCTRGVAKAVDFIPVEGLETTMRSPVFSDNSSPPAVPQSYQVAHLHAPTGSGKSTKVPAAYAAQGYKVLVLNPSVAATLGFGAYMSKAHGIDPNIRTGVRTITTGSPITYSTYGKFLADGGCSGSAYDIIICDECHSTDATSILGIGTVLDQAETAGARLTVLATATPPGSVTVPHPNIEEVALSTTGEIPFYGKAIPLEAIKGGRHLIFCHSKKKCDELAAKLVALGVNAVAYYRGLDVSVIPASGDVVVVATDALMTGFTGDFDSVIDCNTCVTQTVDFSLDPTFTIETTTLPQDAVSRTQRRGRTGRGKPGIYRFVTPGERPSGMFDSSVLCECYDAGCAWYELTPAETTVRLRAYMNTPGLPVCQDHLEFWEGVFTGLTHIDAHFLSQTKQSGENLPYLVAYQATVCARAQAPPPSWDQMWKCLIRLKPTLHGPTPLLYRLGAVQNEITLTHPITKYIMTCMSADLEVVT

Row | SMILES | IC50
1 | Cc1ccc(N2C(=O)C=CC2=O)c(Br)c1 | inactive
2 | O=C1C=CC(=O)N1c1cccc([N+](=O)[O-])c1 | inactive
